Experimental data as given in patent US4454291A, “N-(2-Substituted-1-oxoalkyl)-2,3-dihydro-1H-indole-2-carboxylic acid derivatives” (American Home Products Corporation, priority 1982, dated 1984).
Where a name gives a salt, the structure may show the parent alone. Square brackets hold non-standard residues; d marks the D form. Ends that are not written are not given here. pGlu = O=C1CC[C@@H](C(=O)O)N1

Tests used:
[1] = molecular target: T1, angiotensin converting enzyme (Oryctolagus cuniculus, UniProt P12822); test: In vitro assay for angiotensin converting enzyme inhibition utilizing rabbit lung extract (Cushman et al.), hippuryl-L-histidyl-L-leucine substrate; type: biochemical
T1 construct: utilizing the rabbit lung extract; from tissue; host or cells: rabbit lung extract
T1 sequence (P12822 34-1310): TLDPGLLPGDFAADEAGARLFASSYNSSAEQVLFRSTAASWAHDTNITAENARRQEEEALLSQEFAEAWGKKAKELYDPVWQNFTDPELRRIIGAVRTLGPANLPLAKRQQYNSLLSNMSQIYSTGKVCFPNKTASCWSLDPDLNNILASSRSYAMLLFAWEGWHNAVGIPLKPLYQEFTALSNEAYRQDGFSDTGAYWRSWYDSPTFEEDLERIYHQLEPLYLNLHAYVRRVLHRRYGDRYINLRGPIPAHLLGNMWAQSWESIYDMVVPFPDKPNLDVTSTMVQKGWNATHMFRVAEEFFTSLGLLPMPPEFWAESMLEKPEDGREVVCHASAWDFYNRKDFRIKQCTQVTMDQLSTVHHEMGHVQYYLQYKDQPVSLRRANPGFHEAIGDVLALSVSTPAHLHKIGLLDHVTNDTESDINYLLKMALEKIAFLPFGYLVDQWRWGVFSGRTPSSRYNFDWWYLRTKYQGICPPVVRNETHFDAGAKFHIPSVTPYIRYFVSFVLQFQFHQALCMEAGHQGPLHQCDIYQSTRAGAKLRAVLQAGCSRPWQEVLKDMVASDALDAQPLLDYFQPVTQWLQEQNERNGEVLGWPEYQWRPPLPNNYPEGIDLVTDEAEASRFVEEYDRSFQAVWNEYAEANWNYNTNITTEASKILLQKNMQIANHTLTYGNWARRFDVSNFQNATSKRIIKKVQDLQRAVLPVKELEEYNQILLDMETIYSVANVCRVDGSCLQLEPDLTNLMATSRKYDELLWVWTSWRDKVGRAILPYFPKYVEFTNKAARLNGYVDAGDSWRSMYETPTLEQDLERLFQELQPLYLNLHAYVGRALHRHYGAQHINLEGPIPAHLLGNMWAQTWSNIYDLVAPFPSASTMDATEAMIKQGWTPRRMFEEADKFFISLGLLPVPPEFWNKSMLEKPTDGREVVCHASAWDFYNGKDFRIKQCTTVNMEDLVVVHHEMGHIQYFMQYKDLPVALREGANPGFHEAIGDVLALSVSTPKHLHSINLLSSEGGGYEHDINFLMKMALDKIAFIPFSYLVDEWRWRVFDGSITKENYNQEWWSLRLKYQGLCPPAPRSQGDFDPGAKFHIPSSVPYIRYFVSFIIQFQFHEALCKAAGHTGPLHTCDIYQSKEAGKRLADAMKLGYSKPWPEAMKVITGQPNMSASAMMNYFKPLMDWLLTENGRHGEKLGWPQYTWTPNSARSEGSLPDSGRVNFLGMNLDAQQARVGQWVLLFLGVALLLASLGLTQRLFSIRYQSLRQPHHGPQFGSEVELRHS
Protocol: The angiotensin converting enzyme (ACE) inhibitory property of the compounds is measured in vitro and in vivo. The in vitro assay utilizes rabbit lung extract and a specific tripeptide substrate, hippuryl-L-histidyl-L-leucine being preferred, and follows the method of Cushman et al., Biochem. Pharmacol., 20, 1637-1648 (1971).
In the in vitro assay for angiotensin converting enzyme inhibition utilizing the rabbit lung extract according to the procedure of Cushman et al., Biochem. Pharmacol., 20, 1637-1648 (1971), the following results were obtained: […]

[2] = tested on: vasopressor action of Angiotensin I; test: In vivo ACE inhibitory activity in the conscious normotensive rat: angiotensin I vasopressor response (Rubin et al.); set-up: species or system rat (Sprague-Dawley, male; details: oral, 1 mg/kg, 2 hours after administration
Protocol: The in vivo ACE inhibitory activity of the compounds is measured according to the procedure described in Rubin et al., J. Pharmacol. Exp. Ther., 204, 271-280 (1978), which utilizes the conscious normotensive tat as a subject. In this procedure, the jugular vein and carotid artery cannulae are placed in an etheranesthetized, normotensive, male, Sprague-Dawley rat for injection or oral dosage of compounds and direct recording of systemic arterial pressure, respectively. The blood pressure responses to I. V. injections of angiotensin I (500 ng/kg.), angiotensin II (100 ng/kg.) and bradykinin (10 μg/kg.) are recorded and compared with identical doses administered at various time intervals after oral dosing of a prospective angiotensin converting enzyme inhibitor. An angiotensin converting enzyme inhibitor would not be expected necessarily to lower arterial pressure in the normotensive rat, but would be expected to block angiotensin I pressor responses without grossly altering angiotensin II responses. Additionally,the vasodepressor response to bradykinin would be expected to be augmented since angiotensin converting enzyme is known to inactivate bradykinin normally.

[3] = tested on: spontaneously hypertensive rat; test: Anti-hypertensive effect in the spontaneously hypertensive rat (systolic pressure, indirect caudal plethysmograph); type: in vivo, male); details: oral, 4 subjects
Protocol: The anti-hypertensive effect of the compounds of the invention is measured in the spontaneously hypertensive rat. In this procedure systolic pressure of male spontaneously hypertensive rats is measured by an indirect technique using the Decker Caudal Plethysmograph or other appropriate sensor. Groups usually consist of 4 or more rats. Drugs are usually administered orally. Pressures are usually read prior to drug administration and at 1.5, 4 and 24 hours thereafter. This schedule may be altered depending upon the behavior of the drug.
This procedure measures the hypotensive effect of the subject compounds in a hypertensive subject using a single dose and measuring the response over a 24 hour period. When administered orally according to this procedure, compounds of the invention produced a significant decrease in blood pressures in doses of 1-50 mg/kg. When used to treat hypertension in warm-blooded animals doses of less than 15 mg/kg./day would be utilized, and preferably doses of less than 5 mg/kg./day. Such effective treatment doses would generally be administered in long-term antihypertensive therapy.

[4] = tested on: angiotensin converting enzyme; details: cited from earlier work
hypertension [5] = details: cited from earlier work
hypertension [6] = details: humans with certain forms of hypertension; cited from earlier work

| Molecule | IC50 [1] | potency as inhibitors of angiotensin converting enzyme [4] | oral activity as an anti-hypertensive agent (hypertension [5]) | further results |
| --- | --- | --- | --- | --- |
| C[C@H](N)C(=O)N1c2ccccc2C[C@H]1C(=O)O [Example 54, (S)-1-[(S)-2-Amino-Oxopropyl]-2,3-Dihydro-1H-Indole-2-Carboxylic Acid] | 3100 nM |  |  |  |
| CCOC(=O)[C@H](CCc1ccccc1)N[C@@H](C)C(=O)N1c2ccccc2C[C@H]1C(=O)O.O=C(O)/C=C\C(=O)O [Example 55, (-)-(S)-1-[(2S)-2-[[(1S)-1-(Ethoxycarbonyl)-3-Phenylpropyl]Amino]-1-Oxopropyl]-2,3-Dihydro-1H-Indole-2-Carboxylic Acid, Maleate] | 118 nM |  |  | inhibition of the vasopressor action of Angiotensin I [2]: 46%; Reduction of Systolic BP ([3]; 2.5 mg/kg): -13 mm. Hg.; Reduction of Systolic BP ([3]; 5.0 mg/kg): -23 mm. Hg.; Reduction of Systolic BP ([3]; 10.0 mg/kg): -33 mm. Hg. |
| Pyr-Lys-Trp-Ala-Pro ([pGlu]KWAP) [BPP5a] |  | most potent |  |  |
| C[C@H](CS)C(=O)N1CCCC1C(=O)O (stereo in doubt) [D-3-mercapto-2methylpropanoyl-L-proline] |  |  | effective when administered orally | effectiveness among the proline derivatives (hypertension [5]; in vivo): most effective |
| Pyr-Trp-Pro-Arg-Pro-Gln-Ile-Pro-Pro (WPRPQIPP; N-terminal pyroglutamate; printed: Trp-Pro-Arg-Pro-Gln-Ile-Pro-Pro) [BPP9a] |  | most potent | not orally active | anti-hypertensive effect in clinical studies (hypertension [6]): effective anti-hypertensive agent |
| CCOC(=O)[C@@H](CCc1ccccc1)N[C@@H](C)C(=O)N1c2ccccc2C[C@H]1C(=O)O [Example 56, (-)-(S)-1-[(2S)-2-[[(1R)-1-(Ethoxycarbonyl)-3-Phenylpropyl]Amino]-1-Oxopropyl]-2,3-Dihydro-1H-Indole-2-Carboxylic Acid, Maleate] | 900 nM |  |  |  |
